Measured values taken from PubChem BioAssay AID549 (SRMLSC, 2006).
The source made the active and inactive calls.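 Rule for the calls: active = clearly stronger inhibition of phosphomevalonate kinase than of the coupling enzymes alone in a parallel counterscreen; inactive = the rest.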

These compounds were tested against phosphomevalonate kinase (Streptococcus pneumoniae D39) (assay: phosphomevalonate kinase inhibition IC50 – biochemical, mevalonate pathway, coupling enzyme counter-screen, dose response (AID 549)). Conditions: PMK enzyme, PK/LDH coupled NADH absorbance 340 nm.

| Compound | outcome |
| --- | --- |
| CCOC(=O)c1[nH]nc(C(=O)c2ccc(Br)cc2)c1O | inactive |
| COc1ccc(CNC(=O)C2CCN(S(=O)(=O)N3CCOCC3)CC2)cc1 | inactive |
| O=C(COC(=O)c1ccco1)NC1CCCCC1 | inactive |
| O=C(CSc1nnc(COc2ccccc2)n1-c1ccccc1)c1cccs1 | inactive |
| COc1cccc(CNC(=O)C2CCCN(c3nn4c(=O)cc(C)nc4s3)C2)c1 (stereo not drawn) | inactive |
| CCOc1ccccc1-n1c(SCC(=O)Nc2ccc(CC)cc2)nc2n[nH]c(C)c2c1=N | inactive |
| COc1ccc2c(c1OC)C(=O)OC2C1c2c(cc3c(c2OC)OCO3)CCN1C (stereo not drawn) | inactive |
| CN1CCc2c(sc3c2c(=O)n(-c2ccccc2)c2nnc(SCc4ccc(F)cc4)n32)C1 | inactive |
| COc1ccc(-c2cc3nc(C)c(CCC(=O)N4CCCCC4)c(C)n3n2)c(OC)c1 | inactive |
| O=C(CCSc1nc(-c2ccc3c(c2)OCO3)cc(C(F)(F)F)n1)NCc1ccco1 | inactive |
| COc1ccccc1CNC(=O)C1CCN(c2nc3ccccc3o2)CC1 | inactive |
| CC(C)CCn1nnnc1C(c1ccc(F)cc1)N1CCN(C(=O)c2ccco2)CC1 (stereo not drawn) | inactive |
| O=C(NCc1cccs1)C1CCCN(c2nc3ccccc3o2)C1 (stereo not drawn) | inactive |
| CC1CCN(C(=O)CSc2nc3ccccc3[nH]2)CC1 | inactive |
| COc1ccc(NC(=O)N(C2CCCCC2)C(C)c2ccco2)c(OC)c1 (stereo not drawn) | inactive |
| Cc1csc(C(C#N)C(=O)c2ccc(S(=O)(=O)N3CCCC3)cc2)n1 (stereo not drawn) | inactive |
| Cc1ccc(S(=O)(=O)N2CCN(c3nc(C(C)C)c4c(c3C#N)CC(C)(C)OC4)CC2)cc1 | inactive |
| OC1CCCN(Cc2ccc3c(c2)Cc2ccccc2-3)C1 (stereo not drawn) | inactive |
| O=C(Nc1ccc(F)cc1)N(CCCN1CCOCC1)Cc1cc2cc3c(cc2[nH]c1=O)OCO3 | inactive |
| COc1ccc(-c2coc3c(CN4CCCCC4)c(O)c(CN4CCCCC4)c(O)c3c2=O)cc1 | inactive |
| COC(=O)c1nonc1NCn1nnc2ccccc21 | inactive |
| COc1ccc2c(c1)OC1(C)CC2C(C(=O)c2ccccc2OC)C(=O)N1 (stereo not drawn) | inactive |

| Compound | outcome |
| --- | --- |
| COc1ccccc1-n1c(SCC(=O)N2CCCCC2)nnc1-c1ccccc1O | inactive |
| O=C(CNCC1CCCO1)Nc1ccccc1N1CCOCC1 (stereo not drawn) | inactive |
| CCOC(=O)CNC(=O)Nc1nnc(-c2ccc(OCC)cc2)o1 | inactive |
| O=C(NC1CCCCC1)C1CC(=O)N(c2ccc(Cl)cc2)C1 (stereo not drawn) | inactive |
| C=CCn1c(NCc2ccccc2)nc2ccccc21 | inactive |
| CC(C)(C)c1ccccc1OCCCCCNCCO | inactive |
| Cc1nnc(SCc2ccccc2)n1N | inactive |
| O=C(CCN1C(=O)c2ccccc2C1=O)NC1=NCCS1 | inactive |
| Cc1occc1-c1nnc(SCC(=O)N2CCOCC2)n1Cc1ccco1 | inactive |
| Cn1c(=O)c2c(nc(N3CCOCC3)n2C)n(C)c1=O | inactive |
| CC(C)COC(=O)n1ccc(C(=O)N2CCCCC2)n1 | inactive |
| CCN1CCN(C(c2ccc(F)cc2)c2nnnn2Cc2cccs2)CC1 (stereo not drawn) | inactive |
| CN(C(=O)C1CCOC1)c1nnc(C2CCOC2)s1 (stereo not drawn) | inactive |
| COCC(=O)N(C)c1nnc(-c2cnc(C)cn2)s1 | inactive |
| CCOc1ccc2[nH]c(=O)c(CN(CCO)C(=O)c3ccc(Br)cc3)cc2c1 | inactive |
| COc1ccc(C(c2nnnn2CC2CCCO2)N2CCN(c3ccccc3)CC2)cc1 (stereo not drawn) | inactive |
| CNC(=O)Cn1ncc2c(C)n(Cc3ccc(C)cc3)c(C)c2c1=O | inactive |
| CC(C)=CC(=O)Nc1ccc(Br)cc1 | inactive |
| COC(=O)C(NC(=O)c1ccccc1)=C1C=C(C)OC(C)=C1 | inactive |
| N#Cc1cc2ccccc2nc1SCc1cccnc1 | inactive |
| CCOC(=O)C1=C(C)NC(=O)NC1/C(C)=C/c1ccccc1 (stereo not drawn) | inactive |
| CCOCCCNC(=O)C1CCN(S(=O)(=O)N2CC(C)CC(C)C2)CC1 (stereo not drawn) | inactive |

| Compound | outcome |
| --- | --- |
| COC(=O)[C@@H](NC(=O)N1CCN(c2cccc(C(F)(F)F)c2)CC1)C(C)C | inactive |
| COc1ccc(CN2C(=O)c3ccccc3C2C(=O)NC2CCCC2)c(OC)c1 (stereo not drawn) | inactive |
| COc1ccc(S(=O)(=O)Nc2nnc(C)s2)cc1 | inactive |
| O=c1cc(O)c2c(=O)[nH]c(=O)n(-c3ccccc3)c2[nH]1 | inactive |
| COc1cccc(OC)c1OCC(O)CN1CCN(c2ccccc2)CC1 (stereo not drawn) | inactive |
| O=C(NCC1CCCO1)C1CC(=O)N(C2CCCCCC2)C1 (stereo not drawn) | inactive |
| Cc1c2c(nc3c(C(=O)NC4CCCCC4C)cnn13)CCCC2 (stereo not drawn) | inactive |
| Cc1cccc(OCCCc2c(C)n[nH]c2C)c1 | inactive |
| c1ccc(NC(=NCc2ccco2)c2ccccc2)cc1 | inactive |
| C=CCSc1nnc(Cn2c(=O)sc3ccccc32)n1C | inactive |
| COc1ccccc1C(c1nnnn1C(C)(C)C)N1CCN(Cc2ccncc2)CC1 (stereo not drawn) | inactive |
| COc1ccc(Br)cc1CNC(=O)C1CCN(S(=O)(=O)N2CCCC2)CC1 | inactive |
| Cn1c2ccccc2c2cnn(CC(=O)N3CCN(c4ncccn4)CC3)c(=O)c21 | inactive |
| N#Cc1cccc(CSc2nnc(CCCO)n2-c2ccccc2)c1 | inactive |
| COc1ccc2c(c1)c(C(=O)CNc1nc(C)cs1)c(C)n2C | inactive |
| CCS(=O)(=O)N1CCC(C(=O)NCCc2ccccc2)CC1 | inactive |
| Cc1oc2c(O)c(O)ccc2c(=O)c1-c1ccccc1 | inactive |
| COc1cc(-c2nnc(COc3ccc4ccccc4c3)o2)cc(OC)c1OC | inactive |
| CC(C)CN(CC(C)C)S(=O)(=O)N1CCC(C(=O)NC2CCCCCCC2)CC1 | inactive |
| COc1ccc(NC(=O)c2ccco2)cc1NC(=O)c1ccc(C)cc1 | inactive |
| CCCN1CCN(CCCNC(=O)Cn2nc(-c3ccccc3)ccc2=O)CC1 | inactive |
| COc1ccc(C2(C)NC(=O)N(Cc3cc(Cl)cc4c3OCOC4)C2=O)cc1OC (stereo not drawn) | inactive |

| Compound | outcome |
| --- | --- |
| COc1ccc(-n2c(SCc3nnc(-c4ccccc4)o3)nnc2-c2ccccc2)cc1 | inactive |
| Cc1onc(-c2c(Cl)cccc2Cl)c1C(=O)Nc1ccc2c(c1)OCO2 | inactive |
| COc1ccc2[nH]cc(C(=O)CN3CCCC(C)C3)c2c1 (stereo not drawn) | inactive |
| CCOC(=O)N1CCC(NC(=O)CCc2cn(C)c3ccccc23)CC1 | inactive |
| O=c1c(-c2ccccc2)c(O)c2cccc3c2n1CCC3 | inactive |
| CCc1nn(C(C)C(=O)NC(C)CCc2ccco2)c(=O)c2cc3occc3n12 (stereo not drawn) | inactive |
| COc1ccc(C(=O)Nc2ccncc2)cc1OC | inactive |
| CCOC(=O)C1=C(O)C(=O)N(c2ccc(S(N)(=O)=O)cc2)C1c1ccc(OC)cc1 (stereo not drawn) | inactive |
| COc1ccc(OC)c(CNC(=O)C2CCCN(c3nc4ccccc4o3)C2)c1 (stereo not drawn) | inactive |
| CCOc1cc(C(=O)NCc2nnc(SCC(=O)OC)n2C)cc(OCC)c1OCC | inactive |
| CCN(CC)C(=O)C1CCCN(C/C(C)=C/c2ccccc2)C1 (stereo not drawn) | inactive |
| CNC(=O)C1CC(=O)N(Cc2ccc3c(c2)OCO3)C(=Nc2ccc(OC)cc2)S1 (stereo not drawn) | inactive |
| CS(=O)(=O)N1CCCC(C(=O)N2CCOCC2)C1 (stereo not drawn) | inactive |
| O=C(CSc1cc(Cl)ccc1Cl)NCC1CCCO1 (stereo not drawn) | inactive |
| Cc1ccc(C)c(N(CC(=O)NC2CCCC2)C(=O)CCCC(=O)Nc2ccccn2)c1 | inactive |
| COC(=O)c1cn(-c2ccccc2)nc1C(=O)OC | inactive |
| CN(C(=O)c1cnccn1)c1nnc(-c2cccnc2)s1 | inactive |
| COc1ccc(C(=O)Nc2cccc3c2C(=O)NC3=O)cc1S(=O)(=O)N1CCOCC1 | inactive |
| O=C(COC(=O)CCc1c[nH]c(=O)[nH]1)Nc1ccccc1 | inactive |
| Cc1cc(OCC(=O)NCCO)cc(C)c1Cl | inactive |
| O=C(NC1CC1)c1ccc2c(c1)ncn2C1CCCC1 | inactive |
| CCOC(=O)c1ccccc1NCN1C(=O)CSC1=O | inactive |

| Compound | outcome |
| --- | --- |
| COc1ccccc1CNC(=O)C1CCN(S(=O)(=O)N2CC(C)CC(C)C2)CC1 (stereo not drawn) | inactive |
| COc1ccc(S(=O)(=O)N2CCN(C3CCCCCCC3)CC2)cc1 | inactive |
| OCCNCC1(O)C2CC3CC(C2)CC1C3 (stereo not drawn) | inactive |
| CC(=O)c1ccc(N2CCN(c3ccc(C(F)(F)F)cn3)CC2)cc1 | inactive |
| CCn1c(SCC(=O)Nc2ccc(Cl)cc2)nnc1C1CC1 | inactive |
| CCOC(=O)CSc1n[nH]c(-c2cccnc2)n1 | inactive |
| CCC(Sc1nccn1C)C(=O)Nc1cccc2ccccc12 (stereo not drawn) | inactive |
| CCOC(=O)N1CCN(C(=O)C2CCN(S(=O)(=O)N3CCCC3)CC2)CC1 | inactive |
| COCCCNC(=O)C1C2C=CC3(CN(Cc4ccc(C)cc4)C(=O)C13)O2 (stereo not drawn) | inactive |
| CCc1ccc(OCc2nnc(SCC(=O)NCc3ccco3)o2)cc1 | inactive |
| CCOc1ncccc1C(=O)OCc1cc(=O)n2c(n1)sc1ccccc12 | inactive |
| COC(=O)c1ccccc1S(=O)(=O)N(Cc1cc2ccc(OC)cc2[nH]c1=O)CC1CCCO1 (stereo not drawn) | inactive |
| COc1ccccc1CN(Cc1cc2cc(C)cc(C)c2[nH]c1=O)Cc1nnnn1CC1CCCO1 (stereo not drawn) | inactive |
| COc1ccc(Cn2nnnc2C(c2ccccn2)N2CCN(c3cc(Cl)ccc3C)CC2)cc1 (stereo not drawn) | inactive |
| O=C(c1cc2nc(-c3ccco3)cc(C(F)(F)F)n2n1)N1CCc2ccccc2C1 | inactive |
| COCc1cc(=O)[nH]c(Nc2nc(C)c3ccc(C)cc3n2)n1 | inactive |
| CC1SC(=NC(=O)c2ccco2)NC1=O (stereo not drawn) | inactive |
| COc1ccc(N2C(C)=CS/C2=C(/C#N)c2nnc(N3CCOCC3)n2-c2ccccc2)cc1 | inactive |
| CC(=O)N1CCC(N2CCN(c3ccccc3F)CC2)CC1 | inactive |
| CNS(=O)(=O)c1cccc(C(=O)OC2CCCCC2=O)c1 (stereo not drawn) | inactive |
